# Data from patent publication US20190255083A1 (priority 2011, published 2019).
# How the values were obtained:
# [1] = system: purified bacterial strains isolated from human microbiota (Table 1: Bifidobacterium longum, Bacteroides vulgatus, Bacteroides fragilis, Clostridium …); format: cell-based, bacterial isolates, mainly from human (infant) feces; conditions: for growth (optical density, OD 600 nm) of individual bacterial isolates / final culture pH of individual bacterial isolates: 2 g/L 2′-FL, 3-FL, LDFT or FOS, 5 g/L HMOS, ZMB1 medium, for most of these bacteria; for growth (optical density, OD 600 nm) of individual bacterial isolates / final culture pH of individual bacterial isolates / decrease in culture pH compared with FOS: 48 h; for growth (optical density, OD 600 nm) of individual bacterial isolates: anaerobic, 37° C.; for decrease in culture pH compared with FOS: 2 g/L each, in most cases; for production of lactic acid: summary statement, for FOS: fecal slurrys and individual bacteria of the human microbiome
# [2] = system: pathogenic strains of Campylobacter; conditions: background statement; cited from earlier work
# [3] = system: mixed microbiota of three infants (fecal slurry); assay: Anaerobic culture of infant fecal microbiota with oligosaccharide substrate; format: cell-based, human infant feces; conditions: 24 h
# Experimental: First, the impact of 2′-FL and HMO were examined on fresh samples of mixed microbiota of three infants. A carbohydrate-free basal medium was prepared according to Hughes (Hughes S, et al. 2008 FEMS Microbiol Ecol, 64(3): 482-93) to study the growth of fecal bacteria during fermentation of human milk oligosaccharides (HMO) or 2′-FL. This basal medium contained per liter: 2 g peptone (Oxoid Ltd., Basingstoke, UK), 2 g yeast extract (Oxoid), 0.1 g NaCl, 0.04 g K2HPO4, 0.01 g MgSO4.7H2O, 0.01 g CaCl2.6H2O, 2 g NaHCO3, 0.005 g haemin (Sigma), 0.5 g L-cysteine HCl (Sigma), 0.5 g bile salts (Oxoid), 2 ml Tween 80, 10 μl vitamin K (Sigma), and 4 ml of 0.025% (w/v) resazurin solution. Anaerobic culture methods were those described in Bryant (Bryant, M 1972 Am J Clin Nutr, 25(12): 1324-8) using Hungate culture tubes, sealed with butyl rubber septa. Media were prepared and maintained anaerobically using O2-free CO2.
# Fresh fecal samples were collected from three healthy babies, identified as A, B and C, who had not received antibiotics or pre/probiotics and had no history of gastrointestinal disorder. Fresh human infant feces were added to phosphate-buffered sterile anaerobic saline solution (1:10 feces to saline), mixed in a blender for 60 s, homogenized and filtered through a double layer of sterile cheesecloth. 2 g/L 2′FL and 5 g/L HMO were dissolved for 1 hour in medium before inoculation with 10% (v/v) fecal slurry prepared as above. Hungate tubes containing 2′-FL or HMO were inoculated with fecal material, serving as the treatment. Hungate tubes containing no substrate were also inoculated with feces, to serve as negative control. All tubes were incubated at 37° C. Culture supernatant samples were taken at 24 h. All samples were stored at −20° C. for further analysis. FIGS. 1, 2 and 3 show the results. Prebiotics are associated with an increase in the numbers of microbiota, especially bifidobacteria and lactobacilli, a decrease in gut pH, and an increase in lactic acid. […] These changes are all characteristic of prebiotics.
Substance,"growth (optical density, OD 600 nm) of individual bacterial isolates [1]",final culture pH of individual bacterial isolates [1],decrease in culture pH compared with FOS [1],production of lactic acid [1],Campylobacter binding and infectivity [2],"pH of infant microbiota cultures ([3]; 2′-FL 2 g/L, HMOS 5 g/L, three microbial communities, FIG. 2)","lactic acid produced in infant microbiota cultures ([3]; 2′-FL 2 g/L, HMOS 5 g/L, three microbial communities, compared to controls, FIG. 3)","total bacteria (bacterial growth) in infant microbiota cultures ([3]; 2′-FL at 2 g/L, HMOS at 5 g/L, fecal slurry of 3 infants (A, B, C), 37° C., anaerobic, vs no-substrate control, FIG. 1)"
3-fucosyllactose [3-FL],growth was stimulated (to various degrees),the pH of cultures decreased,at least as great,induce the production of lactic acid,,,,
2′-fucosyllactose [2′-FL],growth was stimulated (to various degrees),the pH of cultures decreased,at least as great,induce the production of lactic acid,inhibited,pH is reduced,significantly higher amounts of lactic acid are produced compared to controls,induced an increase in total bacteria
lactodifucotetraose [LDFT],growth was stimulated (to various degrees),the pH of cultures decreased,at least as great,induce the production of lactic acid,,,,
